One compound from PMC10787068, “Targeting the Mitochondrial Chaperone TRAP1 Alleviates Vascular Pathologies in Ischemic Retinopathy” (Advanced Science, 2023) can be followed below.

The IC50 is the point on the concentration scale where inhibition reaches its midpoint. High values mean lower potency, low ones higher potency.

One data set relates to OIR mice. In words: Oxygen‐induced retinopathy (OIR) mouse model, retinal vasculature (CD31 whole‐mount). In kind it is in vivo. On the procedure: Figure 7 Normalized retinal vascularization upon topical application of TRAP1 inhibitors. A) HIF1α degradation induced by TRAP1 inhibitors. MIO‐M1 cells were incubated with various concentrations of TRAP1 inhibitors as indicated for 6 h under hypoxia and analyzed by western blotting. B) Quantification of HIF1α protein degradation. The HIF1α band intensities in western blot data obtained as in (A) were analyzed and compared. The data are mean ± SEM from four independent experiments. C) Vascular structure of P17 OIR mouse retinas after topical drug application. Vehicle and 2 mM TRAP1 inhibitors were topically administered to the left and right eyes, respectively, of OIR mice at P12 once per day for 5 days. At P17, mice were sacrificed and analyzed by whole‐mount staining with an anti‐CD31 antibody and confocal microscopy. Scale bar, 500 µm. D) Quantification of avascular areas and neovascular tuft. Retinal images collected as in (C) were quantitatively analyzed (n = 5 mice/group). Data information: Data are expressed as mean ± SEM. Student t‐test, ^*** P < 0.001; ^* […].
To induce OIR (Figure 1A), mouse pups were exposed to 75% oxygen at postnatal day 7 (P7) until P12 together with their mothers in a hyperoxic chamber (InVivo Cabinet Model 15; Coy Laboratory; Grass Lake, MI, USA). Hyperoxia‐exposed pups were returned to room air at P12 with nursing mothers until P17. At P17, mice were sacrificed, and eyes were enucleated.
For intravitreal injection, MitoQ was injected into the vitreous cavity using a Nanoliter 2000 microinjector (World Precision Instruments; Sarasota, FL, USA) fitted with glass capillary pipettes under anesthesia. In total, 1 µl MitoQ (0.1 mg/ml) was delivered into the right eye of an OIR mouse once at P12. The contralateral eye was injected with vehicle (0.1% DMSO prepared in distilled water) as a control. […]
Fixed eyes were dissected to isolate retinas under a microscope. […] Fluorescence images were acquired using an Axio Zoom fluorescence microscope (Zeiss; Oberkochen, Germany) or a LSM780 or LSM980 confocal microscope (Zeiss). […]

For data set [1], the system named is mouse primary Müller cells. Kind of data set: Normal cell cytotoxicity in primary Müller cells (trypan blue staining). Format: cell-based. Conditions: 24 hr under hypoxia, n = 4, mean ± SEM. As to the method: (§1) Mouse primary Müller cells were isolated as reported previously.^[ [43] ^] In brief, retinas were isolated from P5–P7 mice and dissociated using a Papain Dissociation Kit (Worthington Industries; Columbus, OH, USA). Collected retinal cells were incubated on a plate coated with 0.1% gelatin (Sigma), and the culture media (DMEM supplemented with 10% FBS and 1% penicillin‐streptomycin) was changed once every 2 days. Cells were subcultured into a new plate and incubated for another 7 days. Adherent cells were largely primary Müller cells, as confirmed by immunocytochemical analysis using an anti‐glutamine synthetase antibody (Millipore). […]
(§2) bar, 500 μm. B) Quantification of avascular and neovascular tuft areas in OIR mice intravitreally injected with MitoQ (n = 5 mice/group). […] Harvested retinal samples were whole-mounted and analyzed as in (A). […]
(§3) Scale bar, 500 μm. D) Quantification of avascular and neovascular tuft areas in OIR mice topically treated with MitoQ (n = 6 mice/group). […]
(§4) their cytotoxic activities were analyzed in four independent experiments by trypan blue staining. The calculated IC50 values are presented in the normal cell cytotoxicity column in Table 1. […] A 3D culture of human corneal epithelium (MCTT HCE) was incubated with 2 mM TRAP1 inhibitors and analyzed by H&E staining.
(§5) The culture thickness (n = 5) was measured and analyzed (Table S1). […]

Experiment in data set [2]: as above
Conditions: mouse, primary Müller cells from mouse retina, 24 hr under hypoxia, n = 4, mean ± SEM. In kind it is cell-based. As to the method:
as §1, §2, §3, §4, §5

Entries after “also recorded” stand apart in the source; their conditions may differ.

With `COC1=C(OC)C(=O)C(CCCCCCCCCC[P+](c2ccccc2)(c2ccccc2)c2ccccc2)=C(C)C1=O` [MitoQ, mitoquinone], the “avascular and neovascular tuft areas in OIR mice” value with OIR mice (intravitreal injection, 1 µl of 0.1 mg/ml once at P12, analysed at P17, n = 5 mice/group) is recorded as “significantly reduced; also recorded: dramatically reduced”; in the data set with OIR mice (topical, 2 mM once per day for 5 days from P12, analysed at P17, n = 5 mice/group) it was “reduced”; in the data set on OIR mice (topical, 10 μl of 1 mM three times daily from P12 to P17, n = 6 mice/group), “reduced; also recorded: potent activity”. The midpoint of inhibition in data set [1], the IC50, lay at 22.5 ± 0.46 µM. Also, 22 µM corresponded to half-maximal inhibition in data set [2] (IC50 at 24 h).
